Experiments:
KRAS (G12C) and SOS1 = target: T1, KRAS (G12C) and SOS1 (Homo sapiens, UniProt Q07889); assay: KRAS (G12C) and SOS1 binding experiment (HTRF); conditions: SOS1 exchange domain (564-1049), 25° C. for 60 min, read-out: KRAS (G12C) and SOS1 binding inhibitory activity IC50
T1 sequence (Q07889 564-1049): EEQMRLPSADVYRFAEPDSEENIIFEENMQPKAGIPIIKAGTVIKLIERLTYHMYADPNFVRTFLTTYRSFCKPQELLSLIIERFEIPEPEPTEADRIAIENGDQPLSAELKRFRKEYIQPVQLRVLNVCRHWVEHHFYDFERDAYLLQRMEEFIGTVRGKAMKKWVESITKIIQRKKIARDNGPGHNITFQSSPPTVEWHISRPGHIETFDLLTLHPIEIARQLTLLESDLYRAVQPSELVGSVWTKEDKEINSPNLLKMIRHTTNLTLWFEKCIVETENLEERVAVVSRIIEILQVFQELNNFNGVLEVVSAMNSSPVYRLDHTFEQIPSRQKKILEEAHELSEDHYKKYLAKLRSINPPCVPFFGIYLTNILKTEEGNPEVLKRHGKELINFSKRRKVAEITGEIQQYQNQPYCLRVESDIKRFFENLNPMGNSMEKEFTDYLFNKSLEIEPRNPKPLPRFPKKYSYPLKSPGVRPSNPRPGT
Description: The multi-functional microplate reader Nivo5 was purchased from PerkinElmer.
Preparation method: 4-hydroxyethylpiperazine ethyl sulfonate (Hepes): 5 mM; sodium chloride (NaCl): 150 mM; ethylenediaminetetraacetic acid (EDTA): 10 mM, CO-630 (Igepal): 0.0025%, potassium fluoride (KF): 100 mM; dithiothreitol (DTT): 1 mM; and bovine serum albumin (BSA): 0.05%.
1) The test compound was diluted five-fold using DMSO with a multi-channel pipette until the 8th concentration was achieved, starting from 1 mM and ending at 0.064 μM.
2) The various gradients of the test compound were diluted with 1 buffer to form working solutions containing 2% DMSO. 5 μL of each working solution was then dispensed into the corresponding wells, with a concentration gradient ranging from 20 μM to 0.00128 nM. Duplicate well experiment was set up for each concentration. Following this, the plate was centrifuged at 1000 rpm for 1 min.
3) A mixed working solution containing KRAS (G12C) at a concentration of 200 nM and Mab Anti GST-Eu cryptate at a concentration of […] was prepared using 1× buffer. […]
4) A mixed working solution containing SOS1 at a concentration of 80 nM and Mab Anti 6HIS-XL665 at a concentration of […] was prepared using 1× buffer. […] After the reaction was completed, the HTRF was read using a multi-label analyzer. […]

H358 cells = assay: Anti-cell proliferation experiment of H358 cell 3D model (soft agar); type: cell-based; conditions: Homo sapiens, 336 h; NCI-H358, soft agar, 14 days co-incubation, Almar blue; read-out: Anti-proliferation inhibitory activity in H358 cell 3D model IC50
Description: RPMI1640 medium, fetal bovine serum, and penicillin/streptomycin antibiotics were purchased from Wisent, and low-melting agarose was purchased from Sigma. Almar blue reagent was purchased from Invitrogen. NCI-H358 cell line was purchased from Nanjing CoBioer Co., Ltd. Nivo multi-label analyzer (PerkinElmer).
H358 cells were seeded into a 96-well U-shaped plate. First, low-melting agarose was prepared into a 2% stock solution. Before use, the agarose stock solution was heated in a microwave oven to completely melt it, and then placed in a 42° C. water bath to keep the agarose in a liquid state. The gel was added to the serum-containing medium to prepare a gel with a concentration of 0.6% as the bottom layer gel, which was then dispensed into the 96-well U-shaped plate at 50 μL per well. After the bottom layer gel solidifies, 2% gel was added to the cell-containing medium to prepare a cell-containing top layer gel with a gel concentration of 0.4%. The cell density was […], and 75 μL was added to each well of the 96-well U-shaped plate with the bottom layer gel, resulting in a cell density of 3000 cells per well. […]
On the day of compound addition, 85 μL of liquid medium is added to the 96-well U-shaped plate with pre-seeded cells. […] The readings were taken using a multi-label analyzer. […]

[1] = system: p-ERK in DLD-1 cells (KRAS G13D mutation); assay: pERK expression levels in DLD-1 cells using HTRF; type: cell-based; conditions: Homo sapiens, 1.5 h compound incubation, read-out: Inhibitory activity against p-ERK in DLD-1 cells IC50
Description: The phosphorylation level of ERK protein in DLD-1 cells with KRAS G13D mutation was detected by the Homogeneous Time-Resolved Fluorescence (HTRF) method, and the IC50 and IC90 values of compounds are employed as indicators to evaluate the inhibitory activity of these compounds towards ERK phosphorylation within the RAS signaling pathway.
1) DLD-1 cells (50,000 cells/well) were seeded into a 96-well plate, and each well was filled with 90 μL of RPMI-1640 medium (10% fetal bovine serum), and then placed in a 37° C., 5% carbon dioxide incubator for overnight culture.
10 μL of DMSO-cell culture medium mixture were added to the solvent control and positive control, with a final DMSO concentration of 0.25%. The 96-well cell plate was then returned to the incubator for 1.5 h of culture.
4) The cell supernatant was removed, and 50 μL of 1× lysis buffer was immediately added, followed by shaking and incubation at room temperature for 30 min.
5) A pipette was used to blow and mix the solution evenly, and 16 μL of cell lysate was transferred from the 96-well plate to the HTRF 384-well detection plate.
6) 4 μL of pre-mixed antibody solution were added, the plate was sealed, and incubated at 4° C. The fluorescence emission intensities at 665 nm and 620 nm were detected using an HTRF plate reader. […]

## C=C[C@@H](Nc1nc(C)nc2cc(=O)n(C3(C(F)F)CC3)cc12)c1cccc(C(F)F)c1F [Compounds as shown in formula (I)]
KRAS (G12C) and SOS1
  IC50: 13 nM
H358 cells
  IC50: 91 nM
[1]
  IC50: 37 nM

From patent US20250230156A1, “CRYSTAL FORM OF ALLYL-CONTAINING METHYLPYRIDOPYRIMIDINE COMPOUND” (MEDSHINE DISCOVERY INC., priority 2022, published 2025)
